{
  "source": "patent US7858044B2",
  "about": "“Multi-well plate providing a high-density storage and assay platform” (Nexus Biosystems, Inc., priority 2003, dated 2010)",
  "target": "recombinant human CYP 3A4 (Homo sapiens, UniProt P08684)",
  "sequence (P08684 whole entry)": "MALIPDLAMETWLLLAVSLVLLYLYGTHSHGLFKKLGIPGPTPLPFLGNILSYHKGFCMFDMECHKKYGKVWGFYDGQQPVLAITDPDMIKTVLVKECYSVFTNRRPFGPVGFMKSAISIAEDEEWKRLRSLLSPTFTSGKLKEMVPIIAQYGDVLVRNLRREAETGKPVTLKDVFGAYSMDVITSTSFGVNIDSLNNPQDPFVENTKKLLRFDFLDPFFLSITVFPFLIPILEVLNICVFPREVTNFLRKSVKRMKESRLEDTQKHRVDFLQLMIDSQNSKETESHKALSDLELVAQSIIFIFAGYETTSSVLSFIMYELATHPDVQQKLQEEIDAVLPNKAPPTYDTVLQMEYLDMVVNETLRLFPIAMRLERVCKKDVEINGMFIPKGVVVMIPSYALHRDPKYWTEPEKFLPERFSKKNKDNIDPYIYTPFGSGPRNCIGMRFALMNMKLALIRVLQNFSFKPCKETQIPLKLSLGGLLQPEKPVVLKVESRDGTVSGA",
  "experiment": "CYP 3A4 isozyme inhibition screen with fluorogenic substrate BOMR in 3456-well plate",
  "conditions": "concentration series",
  "data": [
    {"smiles": "C[C@]12CC[C@H]3[C@@H](CCC4=CC(=O)CC[C@@]43C)[C@@H]1CC[C@@H]2O", "note": "[testosterone]", "values": [
      {"measurement": "Potentiation of CYP 3A4 isozyme", "result": "Potentiation"}
    ]}
  ]
}
